Structures can show the parent of a compound that is named as a salt. Where two headings read alike, the source gives them in different places.
How the values were obtained:
Jak2 (a.a. 828-1132) = molecular target: T1, Jak2 (a.a. 828-1132) (Homo sapiens, UniProt O60674); test: In vitro JAK kinase assay (HTRF, phosphorylation of biotinylated peptide), JAK2; type: biochemical
T1 construct: Jak2 (a.a. 828-1132); His tag (N); made in house; host or cells: insect cells (baculovirus)
Procedure: (§1) Compounds herein were tested for inhibitory activity of JAK targets according to the following in vitro assay described in Park et al., Analytical Biochemistry 1999, 269, 94-104. The catalytic domains of human JAK1 (a.a. 837-1142), Jak2 (a.a. 828-1132) and Jak3 (a.a. 781-1124) with an N-terminal His tag were expressed using baculovirus in insect cells and purified. The catalytic activity of JAK1, JAK2 or JAK3 was assayed by measuring the phosphorylation of a biotinylated peptide. The phosphorylated peptide was detected by homogenous time resolved fluorescence (HTRF). IC50s of compounds were measured for each kinase in the 40 microL reactions that contain the enzyme, ATP and 500 nM peptide in 50 mM Tris (pH 7.8) buffer with 100 mM NaCl, 5 mM DTT, and 0.1 mg/mL (0.01%) BSA. The ATP concentration in the reactions was 90 μM for Jak1, 30 μM for Jak2 and 3 μM for Jak3 for Km conditions. For the 1 mM IC50 measurements, ATP concentration in the reactions was 1 mM. Reactions were carried out at room temperature for 1 hr and then stopped with 20 μL 45 mM EDTA, 300 nM SA-APC, 6 nM Eu-Py20 in assay buffer (Perkin Elmer, Boston, Mass.). Binding to the Europium labeled antibody took place for 40 minutes and HTRF signal was measured on a Fusion plate reader (Perkin Elmer, Boston, Mass.). See Tables 1, 2, 3, and 4 for data related to compounds of the invention.

[1] = molecular target: T2, human JAK1 (a.a. 837-1142) (Homo sapiens, UniProt P23458); test: In vitro JAK kinase assay (HTRF, phosphorylation of biotinylated peptide), JAK1; type: biochemical
T2 construct: The catalytic domains of human JAK1 (a.a. 837-1142); His tag (N); made in house; host or cells: insect cells (baculovirus)
Procedure: as §1

[2] = 1 mM ATP, Examples 1-11, read-out: IC50 (nM) @ 1 mM ATP JAK2
[3] = Km ATP (30 μM for Jak2), Examples 1-11, read-out: IC50 (nM) @ Km ATP JAK2
[4] = 1 mM ATP, Examples 1-11, read-out: IC50 (nM) @ 1 mM ATP JAK1
[5] = Km ATP (90 μM for Jak1), Examples 1-11, read-out: IC50 (nM) @ Km ATP JAK1
[6] = 1 mM ATP, Examples 12-91, read-out: JAK2 IC50 (nM) @ 1 mM ATP
[7] = 1 mM ATP, Examples 12-91, read-out: JAK1 IC50 (nM) @ 1 mM ATP

T1 sequence (O60674 828-1132): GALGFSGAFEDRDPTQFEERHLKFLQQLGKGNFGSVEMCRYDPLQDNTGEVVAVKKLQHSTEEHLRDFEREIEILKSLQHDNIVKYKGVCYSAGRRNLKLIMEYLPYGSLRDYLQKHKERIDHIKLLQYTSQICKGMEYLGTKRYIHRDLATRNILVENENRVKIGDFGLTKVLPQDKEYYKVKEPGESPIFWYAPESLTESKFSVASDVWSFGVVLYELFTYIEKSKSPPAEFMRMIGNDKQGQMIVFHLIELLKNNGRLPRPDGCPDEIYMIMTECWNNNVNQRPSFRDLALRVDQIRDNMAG
T2 sequence (P23458 849-1154): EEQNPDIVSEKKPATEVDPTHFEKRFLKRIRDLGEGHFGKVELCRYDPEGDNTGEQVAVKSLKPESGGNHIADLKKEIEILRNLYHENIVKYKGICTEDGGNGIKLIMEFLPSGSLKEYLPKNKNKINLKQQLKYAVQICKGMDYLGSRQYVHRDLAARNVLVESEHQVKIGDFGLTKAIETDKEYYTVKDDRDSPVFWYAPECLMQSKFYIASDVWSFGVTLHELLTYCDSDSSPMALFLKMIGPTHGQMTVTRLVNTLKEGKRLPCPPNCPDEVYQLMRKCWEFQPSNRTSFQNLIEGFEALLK

| IC50 (Jak2 (a.a. 828-1132); [2]) | IC50 (Jak2 (a.a. 828-1132); [3]) | IC50 [1, 4] | IC50 [1, 5] | IC50 (Jak2 (a.a. 828-1132); [6]) | IC50 [1, 7] | SMILES |
| --- | --- | --- | --- | --- | --- | --- |
| 10 to 20 nM | < 10 nM | < 10 nM | < 10 nM | – | – | CS(=O)(=O)N1CCN(CC(CC#N)n2cc(-c3ncnc4[nH]ccc34)cn2)CC1 (stereo not shown) [Example 1, 4-[4-(methylsulfonyl)piperazin-1-yl]-3-[4-(7H-pyrrolo[2,3-d]pyrimidin-4-yl)-1H-pyrazol-1-yl]butanenitrile] |
| > 20 nM | 10 to 20 nM | < 10 nM | < 10 nM | – | – | N#CCC(CN1CCN(C(=O)c2ccc(C#N)cc2)CC1)n1cc(-c2ncnc3[nH]ccc23)cn1 (stereo not shown) [Example 2, 4-[(4-{3-cyano-2-[4-(7H-pyrrolo[2,3-d]pyrimidin-4-yl)-1H-pyrazol-1-yl]propyl}piperazin-1-yl)carbonyl]benzonitrile] |
| < 10 nM | < 10 nM | 10 to 20 nM | < 10 nM | – | – | N#CCC(CN1CCN(C(=O)c2cc(F)cc(F)c2)CC1)n1cc(-c2ncnc3[nH]ccc23)cn1 (stereo not shown) [Example 3, 4-[4-(3,5-difluorobenzoyl)piperazin-1-yl]-3-[4-(7H-pyrrolo[2,3-d]pyrimidin-4-yl)-1H-pyrazol-1-yl]butanenitrile] |
| < 10 nM | < 10 nM | < 10 nM | < 10 nM | – | – | Cn1ccc(S(=O)(=O)N2CCN(CC(CC#N)n3cc(-c4ncnc5[nH]ccc45)cn3)CC2)n1 (stereo not shown) [Example 4, 4-{4-[(1-methyl-1H-pyrazol-3-yl)sulfonyl]piperazin-1-yl}-3-[4-(7H-pyrrolo[2,3-d]pyrimidin-4-yl)-1H-pyrazol-1-yl]butanenitrile] |
| < 10 nM | < 10 nM | – | < 10 nM | – | – | N#CCC(CC1CCN(S(=O)(=O)C2CC2)CC1)n1cc(-c2ncnc3[nH]ccc23)cn1 (stereo not shown) [Example 5, 4-[1-(cyclopropylsulfonyl)piperidin-4-yl]-3-[4-(7H-pyrrolo[2,3-d]pyrimidin-4-yl)-1H-pyrazol-1-yl]butanenitrile] |
| – | < 10 nM | – | < 10 nM | – | – | N#CCC(CC1CCN(C(=O)c2ccc(F)cc2F)CC1)n1cc(-c2ncnc3[nH]ccc23)cn1 (stereo not shown) [Example 6, 4-[1-(2,4-difluorobenzoyl)piperidin-4-yl]-3-[4-(7H-pyrrolo[2,3-d]pyrimidin-4-yl)-1H-pyrazol-1-yl]butanenitrile] |
| < 10 nM | < 10 nM | < 10 nM | < 10 nM | – | – | Cn1ccc(S(=O)(=O)N2CCC(CC(CC#N)n3cc(-c4ncnc5[nH]ccc45)cn3)CC2)n1 (stereo not shown) [Example 7, 4-{1-[(1-methyl-1H-pyrazol-3-yl)sulfonyl]piperidin-4-yl}-3-[4-(7H-pyrrolo[2,3-d]pyrimidin-4-yl)-1H-pyrazol-1-yl]butanenitrile] |
| < 10 nM | < 10 nM | – | < 10 nM | – | – | N#CCC(CC1CCN(C(=O)c2ccc(F)cc2)CC1)n1cc(-c2ncnc3[nH]ccc23)cn1 (stereo not shown) [Example 8, 4-[1-(4-fluorobenzoyl)piperidin-4-yl]-3-[4-(7H-pyrrolo[2,3-d]pyrimidin-4-yl)-1H-pyrazol-1-yl]butanenitrile] |
| > 20 nM | – | < 10 nM | – | – | – | CC(CN1CCN(S(=O)(=O)c2ccn(C)n2)CC1)n1cc(-c2ncnc3[nH]ccc23)cn1 (stereo not shown) [Example 9, 4-[1-(1-methyl-2-{4-[(1-methyl-1H-pyrazol-3-yl)sulfonyl]piperazin-1-yl}ethyl)-1H-pyrazol-4-yl]-7H-pyrrolo[2,3-d]pyrimidine, phosphoric acid salt] |
| > 20 nM | – | < 10 nM | – | – | – | CC(CN1CCN(S(=O)(=O)c2ccn(C)n2)CC1)n1cc(-c2ncnc3[nH]ccc23)cn1 (stereo not shown) [Example 11, 4-[1-(1-methyl-2-{4-[(1-methyl-1H-pyrazol-3-yl)sulfonyl]piperazin-1-yl}ethyl)-1H-pyrazol-4-yl]-7H-pyrrolo[2,3-d]pyrimidine bis(phosphate) Salt] |
| – | – | – | – | 10 to 50 nM | < 10 nM | N#CCC(CN1CCN(C(=O)c2ccc(C(F)F)cc2F)CC1)n1cc(-c2ncnc3[nH]ccc23)cn1 (stereo not shown) [Example 14, 4-{4-[4-(difluoromethyl)-2-fluorobenzoyl]piperazin-1-yl}-3-[4-(7H-pyrrolo[2,3-d]pyrimidin-4-yl)-1H-pyrazol-1-yl]butanenitrile] |
| – | – | – | – | 50 to 100 nM | < 10 nM | N#CCC(CN1CCN(C(=O)c2c(F)cc(C#N)cc2F)CC1)n1cc(-c2ncnc3[nH]ccc23)cn1 (stereo not shown) [Example 15, 4-[(4-{3-cyano-2-[4-(7H-pyrrolo[2,3-d]pyrimidin-4-yl)-1H-pyrazol-1-yl]propyl}piperazin-1-yl)carbonyl]-3,5-difluorobenzonitrile phosphate Salt] |
| – | – | – | – | < 10 nM | < 10 nM | N#CCC(CN1CCN(C(=O)c2ncc(Cl)cc2F)CC1)n1cc(-c2ncnc3[nH]ccc23)cn1 (stereo not shown) [Example 16, 4-{4-[(5-chloro-3-fluoropyridin-2-yl)carbonyl]piperazin-1-yl}-3-[4-(7H-pyrrolo[2,3-d]pyrimidin-4-yl)-1H-pyrazol-1-yl]butanenitrile] |
| – | – | – | – | > 100 nM | 10 to 50 nM | N#CCC(CN1CCN(C(=O)c2ncc(C#N)cc2F)CC1)n1cc(-c2ncnc3[nH]ccc23)cn1 (stereo not shown) [Example 17, 6-[(4-{3-cyano-2-[4-(7H-pyrrolo[2,3-d]pyrimidin-4-yl)-1H-pyrazol-1-yl]propyl}piperazin-1-yl)carbonyl]-5-fluoronicotinonitrile] |
| – | – | – | – | 50 to 100 nM | 10 to 50 nM | COc1ccc(C(=O)N2CCN(CC(CC#N)n3cc(-c4ncnc5[nH]ccc45)cn3)CC2)cc1F (stereo not shown) [Example 18, 4-[4-(3-fluoro-4-methoxybenzoyl)piperazin-1-yl]-3-[4-(7H-pyrrolo[2,3-d]pyrimidin-4-yl)-1H-pyrazol-1-yl]butanenitrile phosphate Salt] |
| – | – | – | – | > 100 nM | 10 to 50 nM | N#CCC(CN1CCN(C(=O)c2ncc(C(F)(F)F)cc2F)CC1)n1cc(-c2ncnc3[nH]ccc23)cn1 (stereo not shown) [Example 19, 4-(4-{[3-fluoro-5-(trifluoromethyl)pyridin-2-yl]carbonyl}piperazin-1-yl)-3-[4-(7H-pyrrolo[2,3-d]pyrimidin-4-yl)-1H-pyrazol-1-yl]butanenitrile] |
| – | – | – | – | > 100 nM | 10 to 50 nM | N#CCC(CN1CCN(C(=O)c2ccc(C#N)cn2)CC1)n1cc(-c2ncnc3[nH]ccc23)cn1 (stereo not shown) [Example 20, 6-[(4-{3-cyano-2-[4-(7H-pyrrolo[2,3-d]pyrimidin-4-yl)-1H-pyrazol-1-yl]propyl}piperazin-1-yl)carbonyl]nicotinonitrile] |
| – | – | – | – | 50 to 100 nM | 10 to 50 nM | N#CCC(CN1CCN(C(=O)c2ccc(F)cn2)CC1)n1cc(-c2ncnc3[nH]ccc23)cn1 (stereo not shown) [Example 21, 4-{4-[(5-fluoropyridin-2-yl)carbonyl]piperazin-1-yl}-3-[4-(7H-pyrrolo[2,3-d]pyrimidin-4-yl)-1H-pyrazol-1-yl]butanenitrile trifluoroacetate Salt] |
| – | – | – | – | < 10 nM | < 10 nM | N#CCC(CN1CCN(S(=O)(=O)c2ccc3[nH]ncc3c2)CC1)n1cc(-c2ncnc3[nH]ccc23)cn1 (stereo not shown) [Example 22, 4-[4-(1H-indazol-5-ylsulfonyl)piperazin-1-yl]-3-[4-(7H-pyrrolo[2,3-d]pyrimidin-4-yl)-1H-pyrazol-1-yl]butanenitrile] |
| – | – | – | – | > 100 nM | 10 to 50 nM | Cc1cc(F)ccc1NC(=O)N1CCN(CC(CC#N)n2cc(-c3ncnc4[nH]ccc34)cn2)CC1 (stereo not shown) [Example 23, 4-(2-(4-(7H-pyrrolo[2,3-d]pyrimidin-4-yl)-1H-pyrazol-1-yl)-3-cyanopropyl)-N-(4-fluoro-2-methylphenyl)piperazine-1-carboxamide] |
| – | – | – | – | < 10 nM | < 10 nM | N#CCC(CN1CCN(C(=O)c2ccc(Cl)cc2F)CC1)n1cc(-c2ncnc3[nH]ccc23)cn1 (stereo not shown) [Example 26, 3-(4-(7H-pyrrolo[2,3-d]pyrimidin-4-yl)-1H-pyrazol-1-yl)-4-(4-(4-chloro-2-fluorobenzoyl)piperazin-1-yl)butanenitrile] |
| – | – | – | – | < 10 nM | < 10 nM | N#CCC(CN1CCN(C(=O)c2c(F)cc(Cl)cc2F)CC1)n1cc(-c2ncnc3[nH]ccc23)cn1 (stereo not shown) [Example 27, 3-(4-(7H-pyrrolo[2,3-d]pyrimidin-4-yl)-1H-pyrazol-1-yl)-4-(4-(4-chloro-2,6-difluorobenzoyl)piperazin-1-yl)butanenitrile] |
| – | – | – | – | < 10 nM | < 10 nM | Cc1ccc(C(=O)N2CCN(CC(CC#N)n3cc(-c4ncnc5[nH]ccc45)cn3)CC2)c(F)c1 (stereo not shown) [Example 28, 3-(4-(7H-pyrrolo[2,3-d]pyrimidin-4-yl)-1H-pyrazol-1-yl)-4-(4-(2-fluoro-4-methylbenzoyl)piperazin-1-yl)butanenitrile] |

Reference: patent publication US9249145B2, “Heterocyclic derivatives of pyrazol-4-yl-pyrrolo[2,3-d]pyrimidines as janus kinase inhibitors” (Incyte Holdings Corporation, priority 2009, dated 2016)
